Results as given in ChEMBL document CHEMBL5724914, “Linking interpersonal differences in gut microbiota composition and drug biotransformation activity” (2024).

Assay: (§1) The drug is tested on Z-028 corresponding to mouse gut metagenome with ENA study accession number: PRJEB37062 and ENA sample accession number: ERS12561827 for biotransformation under anaerobic condition. The drug concentrations were measured over 9 timepoints collected between 0 and 24 hours of incubation by liquid-chromatography-coupled mass spectrometry (LC–MS)
Details: 2 µM
Also: call rule not given here.

| SMILES | Bacterial Biotransformation |
| --- | --- |
| O=C1CC2(CCCC2)CC(=O)N1CCCCN1CCN(c2ncccn2)CC1 [BUSPIRONE] | Compound NOT metabolized |
| CCCC(C)(COC(N)=O)COC(=O)NC(C)C (stereo not given) [CARISOPRODOL] | Compound metabolized |
| CC(=O)Nc1ccc(OC(C)=O)cc1 [DIACETAMATE] | Compound metabolized |
| COc1cc2nc(N3CCN(C(=O)C4COc5ccccc5O4)CC3)nc(N)c2cc1OC.CS(=O)(=O)O (stereo not given) [DOXAZOSIN MESYLATE] | Compound NOT metabolized |
| CN1[C@@H]2CC[C@H]1C[C@@H](OC(=O)[C@H](CO)c1ccccc1)C2 [HYOSCYAMINE] | Compound NOT metabolized |
| COC1=C(OC)C(=O)C(CCCCCCCCCCO)=C(C)C1=O [IDEBENONE] | Compound metabolized |
| C#C[C@]1(OC(C)=O)CC[C@H]2[C@@H]3CCC4=CC(=O)CC[C@@H]4[C@H]3CC[C@@]21C [NORETHINDRONE ACETATE] | Compound metabolized |
| Cc1cc2c(s1)Nc1ccccc1N=C2N1CCN(C)CC1 [OLANZAPINE] | Compound NOT metabolized |
| COc1cc(NC(C)CCCN)c2ncccc2c1.O=P(O)(O)O.O=P(O)(O)O (stereo not given) [PRIMAQUINE PHOSPHATE] | Compound NOT metabolized |
| CC(=O)OCC(=O)NCCCOc1cccc(CN2CCCCC2)c1 [ROXATIDINE ACETATE] | Compound metabolized |
| COc1cc(C(=O)NCc2ccc(OCCN(C)C)cc2)cc(OC)c1OC [TRIMETHOBENZAMIDE] | Compound NOT metabolized |

Assay: as §1, with “WLS-370” for “Z-028”, “human” for “mouse”, “ERS12561793” for “ERS12561827”
Details: 2 µM

| SMILES | Bacterial Biotransformation |
| --- | --- |
| O=C1CC2(CCCC2)CC(=O)N1CCCCN1CCN(c2ncccn2)CC1 [BUSPIRONE] | Compound NOT metabolized |
| CCCC(C)(COC(N)=O)COC(=O)NC(C)C (stereo not given) [CARISOPRODOL] | Compound metabolized |
| CC(=O)Nc1ccc(OC(C)=O)cc1 [DIACETAMATE] | Compound metabolized |
| COc1cc2nc(N3CCN(C(=O)C4COc5ccccc5O4)CC3)nc(N)c2cc1OC.CS(=O)(=O)O (stereo not given) [DOXAZOSIN MESYLATE] | Compound metabolized |
| COC1=C(OC)C(=O)C(CCCCCCCCCCO)=C(C)C1=O [IDEBENONE] | Compound metabolized |
| C#C[C@]1(OC(C)=O)CC[C@H]2[C@@H]3CCC4=CC(=O)CC[C@@H]4[C@H]3CC[C@@]21C [NORETHINDRONE ACETATE] | Compound metabolized |
| Cc1cc2c(s1)Nc1ccccc1N=C2N1CCN(C)CC1 [OLANZAPINE] | Compound NOT metabolized |
| COc1cc(NC(C)CCCN)c2ncccc2c1.O=P(O)(O)O.O=P(O)(O)O (stereo not given) [PRIMAQUINE PHOSPHATE] | Compound NOT metabolized |
| CC(=O)OCC(=O)NCCCOc1cccc(CN2CCCCC2)c1 [ROXATIDINE ACETATE] | Compound metabolized |
| COc1cc(C(=O)NCc2ccc(OCCN(C)C)cc2)cc(OC)c1OC [TRIMETHOBENZAMIDE] | Compound NOT metabolized |

Assay: as §1, with “WLS-006” for “Z-028”, “human” for “mouse”, “ERS12561741” for “ERS12561827”
Details: 2 µM

| SMILES | Bacterial Biotransformation |
| --- | --- |
| O=C1CC2(CCCC2)CC(=O)N1CCCCN1CCN(c2ncccn2)CC1 [BUSPIRONE] | Compound NOT metabolized |
| CCCC(C)(COC(N)=O)COC(=O)NC(C)C (stereo not given) [CARISOPRODOL] | Compound metabolized |
| CC(=O)Nc1ccc(OC(C)=O)cc1 [DIACETAMATE] | Compound metabolized |
| COc1cc2nc(N3CCN(C(=O)C4COc5ccccc5O4)CC3)nc(N)c2cc1OC.CS(=O)(=O)O (stereo not given) [DOXAZOSIN MESYLATE] | Compound metabolized |
| Cc1cc2c(s1)Nc1ccccc1N=C2N1CCN(C)CC1 [OLANZAPINE] | Compound NOT metabolized |
| COc1cc(C(=O)NCc2ccc(OCCN(C)C)cc2)cc(OC)c1OC [TRIMETHOBENZAMIDE] | Compound NOT metabolized |

Details: human gut metagenome, 24 h, 2 µM

| SMILES | Bacterial Biotransformation |
| --- | --- |
| O=C1CC2(CCCC2)CC(=O)N1CCCCN1CCN(c2ncccn2)CC1 [BUSPIRONE] | Compound NOT metabolized |
| CCCC(C)(COC(N)=O)COC(=O)NC(C)C (stereo not given) [CARISOPRODOL] | Compound metabolized |
| CC(=O)Nc1ccc(OC(C)=O)cc1 [DIACETAMATE] | Compound metabolized |
| COc1cc2nc(N3CCN(C(=O)C4COc5ccccc5O4)CC3)nc(N)c2cc1OC.CS(=O)(=O)O (stereo not given) [DOXAZOSIN MESYLATE] | Compound NOT metabolized |
| Cc1cc2c(s1)Nc1ccccc1N=C2N1CCN(C)CC1 [OLANZAPINE] | Compound NOT metabolized |
| COc1cc(NC(C)CCCN)c2ncccc2c1.O=P(O)(O)O.O=P(O)(O)O (stereo not given) [PRIMAQUINE PHOSPHATE] | Compound NOT metabolized |
| CC(=O)OCC(=O)NCCCOc1cccc(CN2CCCCC2)c1 [ROXATIDINE ACETATE] | Compound metabolized |
| COc1cc(C(=O)NCc2ccc(OCCN(C)C)cc2)cc(OC)c1OC [TRIMETHOBENZAMIDE] | Compound NOT metabolized |

Details: human gut metagenome, 24 h, 2 µM
Remark: another data set of the same source

| SMILES | Bacterial Biotransformation |
| --- | --- |
| O=C1CC2(CCCC2)CC(=O)N1CCCCN1CCN(c2ncccn2)CC1 [BUSPIRONE] | Compound metabolized |
| CCCC(C)(COC(N)=O)COC(=O)NC(C)C (stereo not given) [CARISOPRODOL] | Compound metabolized |
| CC(=O)Nc1ccc(OC(C)=O)cc1 [DIACETAMATE] | Compound metabolized |
| COc1cc2nc(N3CCN(C(=O)C4COc5ccccc5O4)CC3)nc(N)c2cc1OC.CS(=O)(=O)O (stereo not given) [DOXAZOSIN MESYLATE] | Compound metabolized |
| CN1[C@@H]2CC[C@H]1C[C@@H](OC(=O)[C@H](CO)c1ccccc1)C2 [HYOSCYAMINE] | Compound NOT metabolized |
| C#C[C@]1(OC(C)=O)CC[C@H]2[C@@H]3CCC4=CC(=O)CC[C@@H]4[C@H]3CC[C@@]21C [NORETHINDRONE ACETATE] | Compound metabolized |
| Cc1cc2c(s1)Nc1ccccc1N=C2N1CCN(C)CC1 [OLANZAPINE] | Compound NOT metabolized |
| COc1cc(NC(C)CCCN)c2ncccc2c1.O=P(O)(O)O.O=P(O)(O)O (stereo not given) [PRIMAQUINE PHOSPHATE] | Compound NOT metabolized |
| CC(=O)OCC(=O)NCCCOc1cccc(CN2CCCCC2)c1 [ROXATIDINE ACETATE] | Compound metabolized |
| COc1cc(C(=O)NCc2ccc(OCCN(C)C)cc2)cc(OC)c1OC [TRIMETHOBENZAMIDE] | Compound NOT metabolized |

Details: human gut metagenome, 24 h, 2 µM
Remark: another data set of the same source

| SMILES | Bacterial Biotransformation |
| --- | --- |
| O=C1CC2(CCCC2)CC(=O)N1CCCCN1CCN(c2ncccn2)CC1 [BUSPIRONE] | Compound metabolized |
| CCCC(C)(COC(N)=O)COC(=O)NC(C)C (stereo not given) [CARISOPRODOL] | Compound metabolized |
| CC(=O)Nc1ccc(OC(C)=O)cc1 [DIACETAMATE] | Compound metabolized |
| COc1cc2nc(N3CCN(C(=O)C4COc5ccccc5O4)CC3)nc(N)c2cc1OC.CS(=O)(=O)O (stereo not given) [DOXAZOSIN MESYLATE] | Compound metabolized |
| C#C[C@]1(OC(C)=O)CC[C@H]2[C@@H]3CCC4=CC(=O)CC[C@@H]4[C@H]3CC[C@@]21C [NORETHINDRONE ACETATE] | Compound metabolized |
| Cc1cc2c(s1)Nc1ccccc1N=C2N1CCN(C)CC1 [OLANZAPINE] | Compound metabolized |
| COc1cc(NC(C)CCCN)c2ncccc2c1.O=P(O)(O)O.O=P(O)(O)O (stereo not given) [PRIMAQUINE PHOSPHATE] | Compound NOT metabolized |
| CC(=O)OCC(=O)NCCCOc1cccc(CN2CCCCC2)c1 [ROXATIDINE ACETATE] | Compound metabolized |
| COc1cc(C(=O)NCc2ccc(OCCN(C)C)cc2)cc(OC)c1OC [TRIMETHOBENZAMIDE] | Compound NOT metabolized |

Details: human gut metagenome, 24 h, 2 µM
Remark: another data set of the same source

| SMILES | Bacterial Biotransformation |
| --- | --- |
| O=C1CC2(CCCC2)CC(=O)N1CCCCN1CCN(c2ncccn2)CC1 [BUSPIRONE] | Compound NOT metabolized |
| CCCC(C)(COC(N)=O)COC(=O)NC(C)C (stereo not given) [CARISOPRODOL] | Compound NOT metabolized |
| CC(=O)Nc1ccc(OC(C)=O)cc1 [DIACETAMATE] | Compound metabolized |
| COc1cc2nc(N3CCN(C(=O)C4COc5ccccc5O4)CC3)nc(N)c2cc1OC.CS(=O)(=O)O (stereo not given) [DOXAZOSIN MESYLATE] | Compound NOT metabolized |
| COC1=C(OC)C(=O)C(CCCCCCCCCCO)=C(C)C1=O [IDEBENONE] | Compound metabolized |
| C#C[C@]1(OC(C)=O)CC[C@H]2[C@@H]3CCC4=CC(=O)CC[C@@H]4[C@H]3CC[C@@]21C [NORETHINDRONE ACETATE] | Compound metabolized |
| Cc1cc2c(s1)Nc1ccccc1N=C2N1CCN(C)CC1 [OLANZAPINE] | Compound metabolized |
| COc1cc(NC(C)CCCN)c2ncccc2c1.O=P(O)(O)O.O=P(O)(O)O (stereo not given) [PRIMAQUINE PHOSPHATE] | Compound metabolized |
| CC(=O)OCC(=O)NCCCOc1cccc(CN2CCCCC2)c1 [ROXATIDINE ACETATE] | Compound metabolized |
| COc1cc(C(=O)NCc2ccc(OCCN(C)C)cc2)cc(OC)c1OC [TRIMETHOBENZAMIDE] | Compound NOT metabolized |

Details: human gut metagenome, 24 h, 2 µM
Remark: another data set of the same source

| SMILES | Bacterial Biotransformation |
| --- | --- |
| O=C1CC2(CCCC2)CC(=O)N1CCCCN1CCN(c2ncccn2)CC1 [BUSPIRONE] | Compound NOT metabolized |
| CCCC(C)(COC(N)=O)COC(=O)NC(C)C (stereo not given) [CARISOPRODOL] | Compound NOT metabolized |
| CC(=O)Nc1ccc(OC(C)=O)cc1 [DIACETAMATE] | Compound metabolized |
| COc1cc2nc(N3CCN(C(=O)C4COc5ccccc5O4)CC3)nc(N)c2cc1OC.CS(=O)(=O)O (stereo not given) [DOXAZOSIN MESYLATE] | Compound NOT metabolized |
| CN1[C@@H]2CC[C@H]1C[C@@H](OC(=O)[C@H](CO)c1ccccc1)C2 [HYOSCYAMINE] | Compound NOT metabolized |
| COC1=C(OC)C(=O)C(CCCCCCCCCCO)=C(C)C1=O [IDEBENONE] | Compound NOT metabolized |
| C#C[C@]1(OC(C)=O)CC[C@H]2[C@@H]3CCC4=CC(=O)CC[C@@H]4[C@H]3CC[C@@]21C [NORETHINDRONE ACETATE] | Compound NOT metabolized |
| COc1cc(NC(C)CCCN)c2ncccc2c1.O=P(O)(O)O.O=P(O)(O)O (stereo not given) [PRIMAQUINE PHOSPHATE] | Compound NOT metabolized |
| CC(=O)OCC(=O)NCCCOc1cccc(CN2CCCCC2)c1 [ROXATIDINE ACETATE] | Compound metabolized |
| COc1cc(C(=O)NCc2ccc(OCCN(C)C)cc2)cc(OC)c1OC [TRIMETHOBENZAMIDE] | Compound NOT metabolized |

Details: human gut metagenome, 24 h, 2 µM
Remark: another data set of the same source

| SMILES | Bacterial Biotransformation |
| --- | --- |
| O=C1CC2(CCCC2)CC(=O)N1CCCCN1CCN(c2ncccn2)CC1 [BUSPIRONE] | Compound metabolized |
| CCCC(C)(COC(N)=O)COC(=O)NC(C)C (stereo not given) [CARISOPRODOL] | Compound metabolized |
| C#C[C@]1(OC(C)=O)CC[C@H]2[C@@H]3CCC4=CC(=O)CC[C@@H]4[C@H]3CC[C@@]21C [NORETHINDRONE ACETATE] | Compound metabolized |
| Cc1cc2c(s1)Nc1ccccc1N=C2N1CCN(C)CC1 [OLANZAPINE] | Compound metabolized |
| COc1cc(NC(C)CCCN)c2ncccc2c1.O=P(O)(O)O.O=P(O)(O)O (stereo not given) [PRIMAQUINE PHOSPHATE] | Compound NOT metabolized |
| CC(=O)OCC(=O)NCCCOc1cccc(CN2CCCCC2)c1 [ROXATIDINE ACETATE] | Compound metabolized |
